Columns and labels:
HCV replicon = test: HCV subgenomic RNA replicon system (Ava5); assay type: cell-based, hepatitis C virus
[1] = tested on: HCV in 293EBNA-Sip-L cells; test: HCV replication in HCV-infected 293EBNA-Sip-L cell line (intracellular HCV-RNA, nested RT-PCR); assay type: cell-based, hepatitis C virus; conditions: day 2 to day 7 after infection, RT-PCR sensitivity <10^2 copy per 10^5 cells, untreated cells 2.31×10^5 per 10^5 cells
Procedure: To verify the ability of sodium stibogluconate to inhibit HCV replication, a 293EBNA-Sip-L cell line was used. This cell line, permissive for HCV infection and replication, had been established by expressing a cellular factor, Sip-L, in 293EBNA cells (Yeh et al., J. Virol. 75 (2001) 11017–11024). This cell line was maintained in a Dulbecco's modified Eagle's medium containing 10% fetal bovine serum, 250 μg/ml G418, and 150 μg/ml hygromycin B. The cells were infected with HCV. Briefly, cells in a 60-mm-diameter petri dish were incubated with a medium containing 5 μl of HCV-positive serum (10^7 copies of HCV-RNA/ml) for 12 hr. The cells were then incubated in a fresh medium without the serum.
At the second day after the HCV infection, 293EBNA-Sip-L cells were incubated with media containing 0, 1, 10, and 100 μg/ml of sodium stibogluconate, respectively. At the seventh day, the cells were harvested to determine the intracellular level of HCV-RNA. The cells were trypsinized and washed two times with a fresh medium by centrifugation. The supernatant of the second wash (as a contamination control) and the washed cells were collected in pairs for RNA extraction and nested RT-PCR. A digoxigenin-labeled probe was used for the subsequent Southern blot analysis. The sequences of the primers, the method for generating the probe, and the procedure for RT-PCR were described in Yeh et al., J. Virol. 75 (2001) 11017–11024. An amplified HCV fragment was cloned into pCR2.1-TOPO (Invitrogen, Carlsbad, Calif.) to generate a plasmid, pTOPO-HCV5n, which served as a positive control in Southern blot analysis. As internal controls, the levels of 18s and 28s RNAs were measured.

[2] = cited from earlier work
hepatitis C virus (HCV) = test: HCV replication (HCV-RNA level by RT-PCR) in human liver slices from hepatitis C patients; assay type: cell-based; conditions: for suppression of HCV replication in liver slices: 3 days
Procedure: Liver slices were prepared from liver tissues of the patients. To obtain the livers tissues, biopsy was performed using Bard Biopty-Cut biopsy needles (C. R. Bard, Inc. Covington, Ga.) with a diameter of 1.2 mm (18 gauge). Two equal-sized slices, 1 mm in thickness, were separated from each tissue. The remaining portion (main portion) of each tissue was subjected to pathological examination. The liver slices were incubated in a 24-well culture plate containing 2 ml of minimal essential medium-20% fetal bovine serum and fed with fresh medium daily.
To evaluate whether it suppresses the authentic HCV replication in liver slices, the liver slices from patients S10-1 to S10-6 and S00-1 to S00-6 were incubated with 0, 10, and 100 μg/ml of sodium stibogluconate (Wuhan Shengmao Corp., Hubei, China), respectively, 24 hrs after the slices had been cultured in vitro. The slices from patient S10-5 served as a negative control. Three days later (i.e., 96 hr after the slices were cultured), the level of HCV RNA in each slice was measured.
To detect the HCV-RNA level, one step RT-PCR (not nested) was performed in the manner described in Yeh et al., J. Gen. Virol. 78 (1997) 2761–2770. As a control, β-actin mRNA was measured simultaneously. 20 PCR cycles were performed, in which the amounts of the PCR products had not yet reached to a plateau. The primers used were described in Yeh et al., Oncogene 19 (2000) 5213–5220. […] Methods 65 (1997) 219–226. HCV genotypes were determined using Inno-Lipa HCV II kit (Innogenetics, Zwijndrecht, Belgium).
The responsiveness of patients to Interferon-alpha, a drug currently being used to treat hepatitis C, was evaluated using liver slices. Liver slices prepared from patients INF-1 to 6 were incubated with 5000 U/ml of interferon-alpha2b (Schering-Plough Corp., Kenilworth, N.J. Slices from patient IFN-6, who was infected by hepatitis B virus, were used as negative controls.
The slices form patient […] served as negative controls.

[3] = tested on: hepatocytes in human liver slices; test: Viability of hepatocytes in human liver slices (intracellular AST); assay type: cell-based; conditions: 96 hrs after the culture; Group V liver slices; without drug 57%; no significant difference between samples
Procedure: To determine whether sodium stibogluconate or interferon-alpha 2b protects hepatocytes in human liver slices, the viability of hepatocytes in human liver slices incubated with the drugs was examined. As HCV replication causes the death of hepatocytes, intracellular aspartate aminotransferase (AST) leaks out. The intracellular level of AST therefore positively correlates with the cell viability.
Liver slices prepared from the patients in Group V were treated with sodium stibogluconate or interferon-alpha 2b in the manner described above. The AST activity in the medium was determined using a standard technique 48, 72, and 96 hrs after the slices had been cultured in vitro. The AST activities in a fresh medium and in the liver slices 96 hrs after incubation were also measured. For this purpose, the slices were homogenized using a mini-homogenizer (Pellet Pestles, Kimble Deltaware, Vineland, N.J). The percentages of AST leaked out to the medium and remained in the liver slices were calculated accordingly.

hepatitis C = conditions: cited from earlier work

| Molecule | suppression of replication of an HCV replicon (HCV replicon) | intracellular HCV-RNA ([1]; 1 μg/ml) | intracellular HCV-RNA ([1]; 10 μg/ml) | intracellular HCV-RNA ([1]; 100 μg/ml) | estimated blood concentration immediately after injection ([2]; daily dose of 20 mg/kg as used in treating kala-azar) | blood concentration needed for treating kala-azar ([2]; in vivo) [µg/mL] | suppression of HCV replication in liver slices (hepatitis C virus (HCV); 10 μg/ml, slices from patient S10-3) | suppression of HCV replication in liver slices (hepatitis C virus (HCV); 10 μg/ml, slices from patients S10-1, S10-2, S10-4 and S10-6) | suppression of HCV replication in liver slices (hepatitis C virus (HCV); 100 μg/ml, slices from patients S00-1, S00-2, S00-3 and S00-5) | suppression of HCV replication in liver slices (hepatitis C virus (HCV); 100 μg/ml, slices from patients S00-4 and S00-6) | intracellular AST level [3] [%] | suppression of HCV-RNA levels in liver slices (hepatitis C virus (HCV); 5000 U/ml, slices from patient IFN-2) | suppression of HCV-RNA levels in liver slices (hepatitis C virus (HCV); 5000 U/ml, slices from patient IFN-5) | suppression of HCV-RNA levels in liver slices (hepatitis C virus (HCV); 5000 U/ml, slices from patients IFN-1, 3 and 4) | suppression of HCV-RNA levels in liver slices (hepatitis C virus (HCV); interferon heated to 90° C. for 10 min (inactivated) before incubation, slices from patients iIF-1 to 6) | hepatitis C patients responsive to the treatment (hepatitis C) |
| --- | --- | --- | --- | --- | --- | --- | --- | --- | --- | --- | --- | --- | --- | --- | --- | --- |
| O.O.O.O.O.O.O.O.O.O=C([O-])[C@@H]1[O][Sb]2([O-])([O][Sb]34([OH])[O][C@H]([C@H](O)CO)[C@H]([O]3)[C@H](C(=O)[O-])[O]4)[O][C@H]([C@H](O)CO)[C@@H]1[O]2.[Na+].[Na+].[Na+] [sodium stibogluconate] | capable of suppressing | none was detected | none was detected | none was detected | about 400 μg/ml | 400 | not | partially suppressed | almost completely suppressed | not | – | – | – | – | – | – |
| interferon-alpha 2b | – | – | – | – | – | – | – | – | – | – | 83 | no suppression | Partial suppression | suppressed to undetectable levels | No suppression | about 50% |

Reference: patent US7026137B2, “Hepatitis” (Chang Gung University, priority 2003, dated 2006)
